Molecular target: T1, ITK (Mus musculus, UniProt Q03526)
T1 construct: administered to mice orally; from tissue; host or cells: mouse splenocytes (spleen) after oral dosing
T1 sequence (Q03526 1-625): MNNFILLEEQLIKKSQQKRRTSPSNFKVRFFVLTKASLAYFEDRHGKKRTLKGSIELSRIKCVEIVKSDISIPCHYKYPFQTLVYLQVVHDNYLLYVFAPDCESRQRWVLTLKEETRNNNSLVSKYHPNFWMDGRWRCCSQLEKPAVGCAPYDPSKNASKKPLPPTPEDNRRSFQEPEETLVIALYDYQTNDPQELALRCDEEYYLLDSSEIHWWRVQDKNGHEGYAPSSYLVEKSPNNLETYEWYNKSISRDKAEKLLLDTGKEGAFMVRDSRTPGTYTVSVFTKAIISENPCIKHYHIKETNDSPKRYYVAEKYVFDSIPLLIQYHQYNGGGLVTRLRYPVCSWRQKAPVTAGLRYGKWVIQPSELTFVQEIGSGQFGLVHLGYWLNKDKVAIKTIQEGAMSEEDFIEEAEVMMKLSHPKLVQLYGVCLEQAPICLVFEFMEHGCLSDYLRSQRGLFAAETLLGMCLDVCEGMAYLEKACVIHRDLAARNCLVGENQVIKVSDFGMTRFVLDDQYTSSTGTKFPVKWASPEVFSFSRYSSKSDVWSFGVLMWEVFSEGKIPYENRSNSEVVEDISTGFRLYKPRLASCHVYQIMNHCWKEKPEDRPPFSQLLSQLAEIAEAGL
Assay: Western Assay for ITK Degradation in Mouse Splenocytes after oral administration
Format: in vivo
Settings: % ITK remaining in mouse splenocytes
Experimental: Compounds 30 and 31 were administered to mice orally. After 6 hours, splenocytes cells were harvested. ITK was evaluated by Western blotting. Media was removed and cell pellets were lysed in 100 μL lysis buffer (RIPA buffer (Fisher, PI89901), cOmplete Mini EDTA-free protease inhibitor (Sigma 11836170001), Protease Inhibitor Cocktail (Sigma, P2714), Phosphatase Inhibitor Cocktail 2 and 3 (Sigma, P5726 and P0044), Benzonase (Sigma, E1014)). Cells were lysed overnight at −20° C. Following thaw, cells were centrifuged for 10 min at 13000 rpm, then transferred to new tube. Protein levels were determined by BCA Assay performed according to manufacturer's protocol (EMD Millipore, cat. no. 71285-3). Samples were combined with (4×) LDS Sample Buffer and (10×) Reducing Agent and H2O to equally load 20 μg protein per lane of a 26-well NuPAGE 4-12% Bis-Tris protein gel (1.0 mm, Thermo cat. no. NP0326). Samples were separated by running gels at constant 150 V in NuPAGE MES SDS Running Buffer. Following electrophoresis, proteins were transferred to nitrocellulose membranes using an iBlot Gel Transfer Device and iBlot Gel Transfer Stacks (Thermo cat. no. IB21001 and IB301001) and transfer method P3 (20V for 7 min). Membranes were blocked for 1 hr in 5% milk solution (TBS (0.2% Tween-20)). Following blocking, membranes were incubated with primary antibody (1:1000 CST ITK (2F12) #2380) overnight at 4° C. with gentle shaking. Blots were washed 2× in TBS (0.2% Tween-20), 30 min per wash. Following washes, blots were incubated in secondary HRP-conjugated antibody (Promega anti-Mouse IgG (H+L) HRP cat. no. W4021), 1:5000 in 5% milk solution (TBS (0.2% Tween-20)), for 1 hr at room temperature with gentle shaking. Blots were washed 2× in TBS (0.2% Tween-20), 30 min per wash. Blots were incubated with 1:1 mix of ECL reagents 1 & 2 (Amersham ECL Western Blotting Detection Reagent, cat. no. RPN2106) for 2 min at room temperature. Bands were visualized using a Protein Simple imager. Blots were then re-probed with a combination of anti-actin antibody (Sigma Monoclonal Mouse Anti-β-Actin (clone AC-15), cat. no. A5441) and secondary HRP-conjugated antibody (Promega anti-Mouse IgG (H+L) HRP, cat. no. W4021) and similar steps were taken for incubation, wash, detection and visualization steps as above. The data was analyzed using Alpha View software. The densitometric reading for each sample band was normalized to that of the corresponding actin band per lane. Approximate % ITK remaining per sample was calculated as follows: […]
Once % ITK remaining has been calculated for each sample, groups are averaged together to show an means % ITK normalized to actin and relative to control.
Compounds 30 and 29 were administered to mice orally. After 6 hours or 24 hours, splenocytes cells were harvested. ITK was evaluated by Western blotting. Plasma concentrations were determined by LC/MS/MS. Plasma samples were protein precipitated by addition of 100 μl of acetonitrile containing 50 ng/ml of internal standard. The resulting mixture was vortexed and centrifuged at 4000 RPM for 5 minutes. An aliquot of the resultant supernatant (75 μl) was added to 75 μl of 0.1% formic acid in water to constitute the final sample for injection. Samples were injected on a Shimadzu Exion LC Binary Gradient AD Pump HLPC system connected to a Sciex QTRAP 6500+ mass spectrometer. Five μl of sample was injected onto a Waters Acquity UPLC BEH C18 column 130A (2.1×30 mm, […]) at 40° C. utilizing a flow rate of 700 μl/minute. Mobile Phase A was 0.1% formic acid in water and mobile phase B was 0.1% formic acid in acetonitrile. A linear gradient of 15-95% B over 1.0 minute was used. The mass spectrometer was operated in positive ion electrospray mode with multiple reaction monitoring for maximum sensitivity. Sciex Analyst software (version 1.6.3) was used for LC/MS/MS instrument control and acquisition. […]

ITK (%) 60 mpk PO, 24 h (60 mpk PO, 24 h) [%] | ITK (%) 90 mpk PO, 6 h (90 mpk PO, 6 h) [%] | Structure (SMILES)
>100 |  | CC1(C)CCc2c(-c3cc4ccc(C(=O)N5CCC(CN6CCN(c7ccc(C8CCC(=O)NC8=O)nc7)CC6)CC5)cc4[nH]3)n[nH]c2C1 (centres unmarked) [Compound 35, 3-(5-(4-((1-(2-(6,6-dimethyl-4,5,6,7-tetrahydro-1H-indazol-3-yl)-1H-indole-6-carbonyl)piperidin-4-yl)methyl)piperazin-1-yl)pyridin-2-yl)piperidine-2,6-dione]
 | 8 | C[C@@]12Cc3[nH]nc(-c4cc5ccc(N6CCC7(CCN(CC8CCN(c9ccc(C%10CCC(=O)NC%10=O)cn9)CC8)CC7)C6=O)cc5[nH]4)c3C[C@@H]1C2(F)F (stereo partly drawn) [Compound 28, 3-(6-(4-((2-(2-((4aS,5aR)-5,5-difluoro-5a-methyl-1,4,4a,5,5a,6-hexahydrocyclopropa[f]indazol-3-yl)-1H-indol-6-yl)-1-oxo-2,8-diazaspiro[4.5]decan-8-yl)methyl)piperidin-1-yl)pyridin-3-yl)piperidine-2,6-dione]
